Tests used:
Assay type in all cases: cell-based
[1] = system: Rat2 fibroblasts; test: TUNEL analysis of staurosporine-induced apoptosis in Rat2puro / Rat2M11L cells; conditions: 2 μM staurosporine, 5 h
Method: Ectopic Expression of M11L. Control pBabePuro and pBabe-PuroM11L vectors were transiently transfected into BOSC 23 cells and packaged into ecotropic virus particles as described (27). After infection of Rat2 fibroblasts, pooled clones of cells that had stably incorporated the respective proviruses were selected on the basis of ability to grow in the presence of 2.5 μg/ml puromycin, and designated Rat2puro and Rat2M11L. Expression of the M11L protein by Rat2M11L cells was verified by immunoblot analysis (data not shown). Transient expression of GFP chimeric proteins for flow cytometry was accomplished by transfecting HeLa cells with GFP plasmid constructs using the Lipofectin Plus reagent (GIBCO BRL) as described (28). Analysis was conducted 24 h after transfection.
Induction and Measurement of Apoptosis. Apoptosis was induced by addition of staurosporine (Sigma Chemical Co.) to the cell culture medium at a final concentration of 2 μM. Apoptotic cells were identified by measuring the characteristic elevation in levels of nicked DNA using the previously described terminal deoxynucleotidyl transferase-mediated dUTP-fluorescein nick end labeling (TUNEL) reaction (19, 29).

[2] = system: Caspase-3; test: Caspase-3 activation by SDS-PAGE and immunoblot in Rat2puro / Rat2M11L cells; conditions: 5 μM staurosporine, 4 h
Method: Measurement of Caspase-3 Activation. Rat2puro and Rat2-M11L cells (10^6) were incubated with 5 μM staurosporine for up to 4 h. Caspase-3 activation was detected by SDS-PAGE and immunoblot analysis as described (30) using an antibody directed against the large subunit of the active enzyme (provided by Dr. D. Nicholson, MerckFrosst Center for Therapeutic Research, Montreal, Quebec, Canada).

[3] = system: HeLa cells; test: Mitochondrial membrane potential by TMRE fluorescence in HeLa cells expressing GFP constructs; conditions: CCCP
Method: Measurement of Mitochondrial Membrane Potential in Cells Expressing M11L Constructs. […] Flow cytometric analysis was conducted using a Becton Dickinson FACSCalibur™ flow cytometer equipped with an argon ion laser with 15 mW of excitation at 488 nm. […] HeLa cells transiently expressing GFP plasmid constructs were treated with 2.5 μM staurosporine, and control samples were treated with DMSO alone. […] Flow cytometric analysis to detect green fluorescence due to GFP and orange fluorescence due to TMRE was conducted using a FACSCalibur™ instrument specified above. GFP fluorescence was collected after a 530/30-nm band pass filter, and TMRE fluorescence was acquired through a 585/42-nm band pass filter. Electronic fluorescence compensation was set to eliminate any spectral overlap of the emitted signals. Data were acquired at 10,000 cells per sample with fluorescence signals at logarithmic gain. The percentage of GFP-positive cells that were also TMRE-positive was then calculated for each gated cell population.

[4] = system: Rat2 fibroblasts; conditions: control cells, CCCP 50 μM
Method: Measurement of Mitochondrial Membrane Potential in Cells Expressing M11L Constructs. Rat2puro or Rat2M11L cells were cultured in 12-well plates (5×10^5 cells/well) and treated with 2 μM staurosporine for 4 h. As the staurosporine stock was prepared in DMSO, control cells were treated with an equivalent amount of DMSO alone. Thereafter, the cells were stained with the green fluorescent dye 3,3′dihexyloxacarbocyanine iodide (DiOC6; Molecular Probes). […] Cells were incubated with 0.5 nM DiOC6 at 37° C. for 10 min, harvested with trypsin, and then washed and resuspended in RPMI lacking phenol red (GIBCO BRL). […] CCCP was added to the cell culture medium at a final concentration of 50 μM during and after dye addition. Flow cytometric analysis was conducted using a Becton Dickinson FACSCalibur™ flow cytometer equipped with an argon ion laser with 15 mW of excitation at 488 nm. Data were acquired at 10,000 cells per sample, and the fluorescent signal due to excitation of DiOC6 at 488 nm was detected through the FL1 channel equipped with a 530 nm filter (30 nm band pass). Light scatter signals were acquired at linear gain, and fluorescence signals were acquired at logarithmic gain.

Molecule | levels of TUNEL-positive (apoptotic) cells [1] | Caspase-3 activation (32 kD proenzyme reduced, p19 cleavage product) [2] | TMRE fluorescence (mitochondrial membrane potential) [3] | DiOC6 fluorescence (mitochondrial membrane potential) [4]
CN[C@@H]1C[C@H]2O[C@@](C)([C@@H]1OC)n1c3ccccc3c3c4c(c5c6ccccc6n2c5c31)C(=O)NC4 [staurosporine] | steady increase in the levels of TUNEL-positive Rat2puro cells | resulted in activation of Caspase-3 | – | –
carbonyl cyanide mchlorophenyl hydrazone [CCCP] | – | – | induced a marked loss of TMRE fluorescence | Fluorescence was diminished

From patent US20030170722A1, “Methods and reagents for regulating apoptosis” (priority 2001, published 2003)
